Results from patent US5006555A, “Esters of 2-arylmethyl-1-naphthol derivatives as 5-lipoxygenase inhibitors” (E. I. Du Pont de Nemours and Company, priority 1990, dated 1991).

Experiments:
[1] = test system: arachidonic acid-induced ear edema; test: arachidonic acid-induced ear edema in mice; type: in vivo; conditions: Mus musculus, 1 h; 100 μg/ear topical in acetone, CF1 mice, 1 mg arachidonic acid, one hour after challenge; >30% significant, 50% and above good to excellent
Method: This assay indicates a specific use in the treatment of skin diseases such as psoriasis. This assay also implies a reduction in leukotrienes caused by the compounds of the invention and indicates the use of these compounds in other diseases where the production of leukotrienes is involved in the pathological process. The assay is a modification of the procedure described by Young et al. (J. Invest. Dermatol. (1983) 80. 48).
Arachidonic acid (1 mg) was applied as an acetone solution to the inner surface of the pinna of CF1 mice. Test compound dissolved in acetone was applied to the ear just prior to the arachidonic acid challenge. One hour after challenge, 6 mm disks were removed from the ear with a biopsy punch and the weight determined. The results were determined as a percent inhibition of the swelling which occurred in the absence of the test compound.
Significant inhibitory activity is considered to be greater than 30% inhibition. 50% and above is considered to be good to excellent activity.

5-lipoxygenase = target: T1, 5-lipoxygenase (Rattus norvegicus, UniProt P12527); test: 5-lipoxygenase inhibition in vitro, RBL-1 cell supernatant as enzyme source; type: biochemical; conditions: 10,000 xg supernatant of homogenized rat basophilic leukemia (RBL-1) cells, pH 7.0 phosphate buffer, 14C-arachidonic acid, 37°, two minutes
T1 construct: endogenous in cells; host or cells: RBL-1 (rat basophilic leukemia) cells, 10,000 xg supernatant of the homogenate
T1 sequence (P12527 1-673): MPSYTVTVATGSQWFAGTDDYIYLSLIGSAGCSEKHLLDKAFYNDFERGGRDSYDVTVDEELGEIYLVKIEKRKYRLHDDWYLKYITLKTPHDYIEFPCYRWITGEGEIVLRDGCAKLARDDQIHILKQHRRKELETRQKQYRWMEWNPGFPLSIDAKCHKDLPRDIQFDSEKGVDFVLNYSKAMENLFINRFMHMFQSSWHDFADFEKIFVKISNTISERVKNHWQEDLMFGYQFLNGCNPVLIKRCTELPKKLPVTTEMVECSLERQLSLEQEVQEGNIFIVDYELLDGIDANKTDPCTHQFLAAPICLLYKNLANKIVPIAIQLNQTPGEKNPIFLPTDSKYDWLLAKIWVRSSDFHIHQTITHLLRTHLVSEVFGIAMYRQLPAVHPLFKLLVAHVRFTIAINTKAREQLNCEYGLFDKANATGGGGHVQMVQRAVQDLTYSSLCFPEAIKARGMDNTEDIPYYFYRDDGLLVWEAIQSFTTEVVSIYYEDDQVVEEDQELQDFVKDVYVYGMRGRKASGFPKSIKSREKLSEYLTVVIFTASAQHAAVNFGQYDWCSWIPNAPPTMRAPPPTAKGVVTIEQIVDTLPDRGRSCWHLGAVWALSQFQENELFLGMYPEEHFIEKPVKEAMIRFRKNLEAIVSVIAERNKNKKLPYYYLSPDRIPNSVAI
Method: The test method is a modification of the procedure developed by Jakschik et al. (Prostaglandins (1978) 16. 733; Biochem. Biophys. Res. Commun. (1980) 95. 103; Biochem. Biophys, Res. Commun. (1981) 102 624).
The 10,000 xg supernatant from homogenized RBL-1 cells was incubated with test compound in a pH 7.0 phosphate buffer for about five minutes. ^14 C-arachidonic acid was added to initiate the reaction, which was allowed to continue at 37° for two minutes. The reaction was stopped by freezing in a dry ice/ethanol slurry and the 5-lipoxygenase products were separated from the substrate on silica gel columns. The amount of individual lipoxygenase products produced was determined and the percent inhibition calculated.

Row | SMILES | IC50 (5-lipoxygenase) | inhibition in vivo at 100 µg/ear [1]
1 | CC(=O)Oc1c(Cc2ccccc2)ccc2ccccc12 [Example 1, 1-acetoxy-2-phenylmethylnaphthalene] | 140 nM | 66%
2 | CC(=O)Oc1c(Cc2ccccc2F)ccc2ccccc12 [Example 7] |  | 72%
3 | COc1ccc(Cc2ccc3ccccc3c2OC(C)=O)cc1OC [Example 11] | 580 nM | 
4 | CC(=O)Oc1ccc(Cc2ccc3ccccc3c2OC(C)=O)cc1OC(C)=O [Example 12, 1-acetoxy-2-(3,4-diaacetoxyphenylmethyl)naphthalene] | 1600 nM | 35%
5 | CC(=O)Oc1c(Cc2ccc3c(c2)OCO3)ccc2ccccc12 [Example 14] | 190 nM | 
6 | CC(=O)Oc1c(Cc2ccc(N(C)C)cc2)ccc2ccccc12 [Example 15, 1-acetoxy-2-(4-dimethylaminophenylmethyl)naphthalene] | 810 nM | 49%

More lines, main results first:

Row | IC50 (5-lipoxygenase) | SMILES | inhibition in vivo at 100 µg/ear [1]
7 | 1200 nM | CCOC(=O)Oc1c(Cc2ccccc2)ccc2ccccc12 [Example 2, 1-ethoxycarbonyloxy-2-phenylmethyl naphthalene] | 50%
8 | 530 nM | O=C(O)CCC(=O)Oc1c(Cc2ccccc2)ccc2ccccc12 [Example 3, 1-(3-carboxvpropionvloxv)-2-phenylmethvlnaphthalene] | 
9 | 520 nM | CN(C)CCCC(=O)Oc1c(Cc2ccccc2)ccc2ccccc12 [Example 4, 1-(4-demethylamine-butyryloxy)-2-phenylmethvlnaohthalene hvdrochloride] | 44%
10 | 62 nM | CC(=O)Oc1c(Cc2cccc(F)c2)ccc2ccccc12 [Example 8] | 
11 | 90 nM | COc1ccc(Cc2ccc3ccccc3c2OC(C)=O)cc1 [Example 10] | 53%
12 | 70 nM | CC(=O)Oc1c(Cc2cccs2)ccc2ccccc12 [Example 17] | 52%
